# Earlier results, collected in patent US20250213501A1, “IMPROVING SEMEN QUALITY” (CEUTICS HEALTH GMBH, priority 2022, published 2025).
# Legend:
# [1] = daily intake of 12 mg of spermidine provided in a plant extract (e.g., wheat germ extract)
smiles,measurement,setting,value
NCCCCNCCCN [spermidine],safety of daily intake,[1],safe
same,NOAEL for a 70 kg person,70 kg person,470 mg/day
same,NOAEL (No Observed Adverse Effect Level),"Til et al., Food and Chemical Toxicology 1997",83 mg/kg body weight/day
